Experimental data as given in article PMC4412466 (Supramolecular chemistry, 2014).

Legend:
[1] = Phase solubility diagram of container with excess cinnarizine; type: physicochemical; conditions: 50 mM NaOAc buffer, pD 4.74
[2] = Phase solubility diagram of container with excess albendazole; type: physicochemical; conditions: 50 mM NaOAc buffer, pD 4.74
[3] = Phase solubility diagram of container with excess camptothecin; type: physicochemical; conditions: 0.01 M DCl, pD 2.0
[4] = cited from earlier work

maximum [cinnarizine] obtained with container [1]: 13.7 mM
affinity toward albendazole (slope of phase solubility diagram), CB[7] versus 1 [2]: comparable
affinity toward camptothecin (slope of phase solubility diagram), CB[7] versus 1 [3]: comparable affinity
Substance: Cucurbit[7]uril [CB[7]]
solubility in water [4]: 20 to 30 mM
